Source: US12138140B2, “Wound covering for wound monitoring and therapeutic agent delivery” (UVic Industry Partnerships Inc., priority 2017, dated 2024)

Experiments:
[1] = dehydration test (weight loss over time); type: physicochemical; conditions: glycerol added to alginate
Procedure: One of the main advantages of using hydrogels as a substrate for wound dressings is their ability to retain moisture at the wound site. However, hydrogels may be prone to rapid dehydration, which can compromise the integrity of the dressing and ultimately affect its functionality. Rapid dehydration of the hydrogels can pose a challenge for the clinical application of gel-based dressings. The dehydration rate of the dermal patch was evaluated by measuring its weight loss at 37° C. and it was observed that the alginate patch was completely dehydrated in less than 10 hr (FIG. 26A). Influential parameters on dehydration rates including alginate concentration and dressing thickness were altered for these experiments. […]
The effect of Mepitel® on the dehydration rate of the hydrogel dressing was studied. Dressings with 2% w/v alginate were covered by Mepitel® and their weight were measured in 24 hr. […]
Dehydration and hydration tests: Square gel sheets (15 mm×15 mm) made of two different concentrations of alginate (2% and 6% w/v) and two different thicknesses (1.5 mm and 3 mm) were fabricated by crosslinking with agarose sheets containing CaCl2 similar to preparation of the patches. […] The weight was then recorded during definite time intervals for 3 hours and the degree of swelling was then obtained by determining the gained weight for each sample.

[2] = test system: P. aeruginosa; experiment: semi quantitative bacteria inhibition assay of drug-eluting scaffolds on agar plate; type: cell-based, Pseudomonas aeruginosa; conditions: 3 mg/ml dosage
Procedure: To examine the antibacterial effectiveness of the drug-eluting scaffolds, a semi quantitative bacteria inhibition assay was performed using P. aeruginosa. […] Scaffolds with no drugs and filter paper impregnated with the same amount of drugs were used as negative and positive controls, respectively. Gentamicin is widely used as an effective antibiotic agent against a wide range of Gram-negative and Gram-positive bacteria, including P. aeruginosa (25-27). […] The observed white ring around the scaffold within the inhibited zone was suspected to be infected by the bacteria. Therefore, we collected swab samples from three different zones near the scaffold (point 1), in the white region (point 2), and at the edge of the ring (point 3), then plated the samples overnight on another agar plate. […] The formation of the white ring around the scaffold can be attributed to the interaction of the phosphate ions in the agar and calcium ions that were releasing from the calcium alginate scaffolds.
Bacteria viability loss assay: Drug-eluting scaffolds were embedded in alginate patches as described previously; patches were then placed on top of a Tryptic soy agar (TSA, Sigma-Aldrich) plate on which Pseudomonas aeruginosa bacteria were spread and the effect of the antimicrobial was investigated after incubation at 37° C. for 18 hr.

[3] = antibacterial efficiency of UV-sterilized gentamicin versus drug not treated with UV; type: cell-based; conditions: UV 365 nm, 200 mW/cm^2
Excerpt: In a representative example, multifunctional dressings were made according to the embodiments described herein comprising an array of porous color-changing pH sensors (e.g., the sensing elements 14) and drug-eluting scaffolds (e.g., the therapeutic agent delivery elements 16), which were embedded within an alginate dressing (FIG. 16A). The array of porous sensors (each sensor was 12×12 mm in size) comprised three-dimensionally (3D)-printed color-changing alginate fibers that were loaded with mesoporous resin beads doped with a pH-responsive dye (FIGS. 16A-16G). Alginate is a naturally-derived polysaccharide that can be used as a dressing material for epidermal applications due to its biocompatibility, hemostatic properties, and non-adhesive characteristics that facilitate the removal of the dressing without trauma and pain (14-18). With reference to FIG. 6A and FIGS. 16B and 16C, to print the sensors, a microextruder 60 comprising two coaxial needles 62 and 64 (FIG. 16C and FIGS. 22A-22B) mounted on a 3D printer (e.g., a Prusa i3) was used. The porosity of the sensors was adjusted by changing the diameter of the fibers while keeping the spacing between fibers constant. Encapsulation of the beads within the hydrogel fibers prevented the beads from dispersing in the wound area while providing a biocompatible interface with the wound site. […]

Compound | reduction of dehydration rate [1] [%] | effectiveness of topical delivery in the in vitro inhibition assay [2] | impact of UV exposure on antibacterial efficiency of the drug [3]
OCC(O)CO [glycerol] | 30 |  | 
gentamicin sulfate |  | demonstrated the effectiveness | no impact
